Measurements as given in PubChem BioAssay (NCI).
Values joined by “and” are separate entries in the source; they are usually repeats but may differ in a detail not shown here. Identical values can stand only once.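 Interpolation was linear, between the two tested concentrations surrounding the appropriate level; five concentrations were tested over 48 hours in 96-well plates. Abbreviation: GI50, concentration required for 50% inhibition of growth. At the TGI there is no net growth.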

Assays:
Test in all cases: NCI-60 cell line screen, 48 h
[1] = tested on: M14 melanoma
[2] = tested on: OVCAR-8 ovarian
[3] = tested on: RPMI-8226 leukemia
[4] = tested on: RXF 393 renal
[5] = tested on: SF-268 CNS
[6] = tested on: SNB-75 CNS
[7] = tested on: SW-620 colon
[8] = tested on: TK-10 renal
[9] = tested on: UACC-62 melanoma
[10] = tested on: CAKI-1 renal
[11] = tested on: PC-3 prostate

Row | SMILES | TGI [1] | TGI [2] [µM] | TGI [3] [µM] | TGI [4] [µM] | TGI [5] [µM] | TGI [6] | TGI [7] [µM] | TGI [8] [µM] | TGI [9] [µM] | TGI [10] [µM] | TGI [11] [µM] | GI50 [1] | GI50 [2] | GI50 [11] | GI50 [3] | GI50 [5] | GI50 [6] | GI50 [9]
1 | COc1cccc(-c2nccc3c(OCc4ccccc4)c(OC)c(OC)cc23)c1 | > 100 µM | > 100 | > 100 | > 100 | > 100 | > 100 µM | > 100 | > 100 | > 100 | – | – | – | – | – | – | – | – | –
2 | CN[C@@H](C)[C@@H](O)c1ccccc1 | > 100 µM | > 100 | > 100 | – | > 100 | > 100 µM | > 100 | > 100 | – | > 100 | > 100 | – | – | – | – | – | – | –
3 | Cn1ccnc1CCc1ccc(Cl)c(Cl)c1 | > 100 µM | > 100 | > 100 | > 100 | > 100 | > 100 µM | > 100 | > 100 | > 100 | > 100 | – | – | – | – | – | – | – | –
4 | CC(=O)Oc1cc(OC(C)=O)c2c(C)cc(=O)oc2c1 | > 100 µM | > 100 | > 100 | – | > 100 | > 100 µM | > 100 | > 100 | > 100 | – | > 100 | – | – | – | – | – | – | –
5 | CC(=O)N(C(C)=O)n1c(Cc2ccc(C)cc2)nn(C(C)=O)c1=O | > 100 µM | > 100 | > 100 | – | > 100 | > 100 µM | > 100 | > 100 | > 100 | > 100 | > 100 | – | – | – | – | – | – | –
6 | Cc1ccc(S(=O)(=O)N/N=C2/CCC(C(C)(C)C)CC2Br)cc1 (stereo not given) | 35.4 µM | > 100 | 82.3 | – | > 100 | 87 µM | 53.1 | > 100 | – | 69.1 | 86.5 | – | – | – | – | – | – | –
7 | CC(=O)NC1(C(=O)N[C@@H](Cc2ccccc2)C(=O)NC2CCCCC2)Cc2ccc3ccccc3c2-c2c(ccc3ccccc23)C1 | 29.6 µM and 44 µM | > 100 | > 100 | – | > 100 | > 100 µM and 36.6 µM | > 100 | – | > 100 | > 100 | > 100 | 3.32 µM and 7.79 µM | 8.67 µM and 33.2 µM | 2.87 µM and 6.4 µM | 3.31 µM and 13.9 µM | 8.66 µM and 31.3 µM | 7.84 µM and 1.43 µM | 6.22 µM and 12.7 µM
8 | CN(C)c1ccc(/C=C/C(=O)O)cc1 | > 100 µM | > 100 | > 100 | – | > 100 | > 100 µM | > 100 | – | > 100 | > 100 | – | – | – | – | – | – | – | –
9 | CCOc1ccc(/C=C2\NC(=S)N(/C=C3\C(=O)Oc4ccccc4C3=O)C2=O)cc1 | 92.4 µM | 36.7 | – | 33.6 | 68 | 61.6 µM | > 100 | 49.6 | 37.9 | 53.5 | 42.3 | – | – | – | – | – | – | –
10 | O=C(CSc1nnc(-c2ccc(N=Cc3ccc(Cl)cc3)cc2)o1)Nc1ccc([N+](=O)[O-])cc1 | 42 µM | > 100 | 8.01 | 34.6 | 46.1 | 58.1 µM | 36.3 | > 100 | 42.4 | – | – | – | – | – | – | – | – | –
11 | COc1c(C)c(C/C=C(\C)CC/C=C(\C)CC/C=C(\C)CCC=C(C)C)c(OC)c2ccccc12 | > 100 µM | > 100 | – | > 100 | > 100 | > 100 µM | > 100 | > 100 | > 100 | > 100 | > 100 | – | – | – | – | – | – | –
12 | O=[N+]([O-])c1ccc([N+]2=NC(c3ccccc3)=NN(c3ccccc3)C2)cc1 | > 100 µM | > 100 | > 100 | > 100 | > 100 | > 100 µM | > 100 | > 100 | > 100 | > 100 | – | – | – | – | – | – | – | –
13 | CC(=O)OC(C)c1cc2c(s1)C(=O)c1c(C(C)OC(C)=O)csc1C2=O (stereo not given) | 1.79 µM | 2.05 | 4.98 | 4.39 | 13.2 | 4.43 µM | 2.37 | 5.69 | 2.51 | – | 6.6 | 0.516 µM | 0.452 µM | – | – | – | – | 1.09 µM
14 | Cn1c(=O)c(C(=O)NC(=O)NCCCCCOC(=O)CCCCCCCCCCC(=O)OCCCCCNC(=O)NC(=O)c2cn(Cc3ccccc3)c(=O)n(C)c2=O)cn(Cc2ccccc2)c1=O | > 100 µM | > 100 | > 100 | > 100 | > 100 | > 100 µM | > 100 | > 100 | > 100 | > 100 | – | – | – | – | – | – | – | –
15 | O=C(C(Cl)=C(N1CCCCC1)N1CCCCC1)C(Cl)Cl | > 100 µM | > 100 | > 100 | > 100 | > 100 | – | > 100 | > 100 | > 100 | > 100 | > 100 | – | – | – | – | – | – | –
16 | COC([C@@H](OC(=O)c1ccccc1)[C@H](OC(=O)c1ccccc1)C(O)COC(=O)c1ccccc1)n1cc(C)c(=O)[nH]c1=O (stereo not given in full) | 76 µM | > 100 | > 100 | 43.1 | > 100 | 73.8 µM | > 100 | > 100 | 56.3 | – | > 100 | – | – | – | – | – | – | –
17 | Cc1c(O)c(OC2OC(CO)C(O)C(O)C2O)cc2c1C=C[C@@H]1[C@@]2(C)C(=O)C[C@]2(C)[C@@H]([C@@](C)(O)C(=O)CCC(C)(C)O)[C@H](O)C[C@@]12C (stereo not given in full) | 68.9 µM | > 100 | – | 38.1 | 83.1 | 62.9 µM | 79.9 | 33.4 | 33.5 | 36.5 | 44.5 | – | – | – | – | – | – | –
18 | Cc1ccc2c(C(=O)c3c(C)n(CCN4CCOCC4)c4ccccc34)cccc2c1 | 62 µM | 56.1 | 18.6 | 54.6 | 33.8 | – | 16.5 | 55.6 | 45.2 | > 100 | 43.2 | – | – | – | – | – | – | –
19 | CC(C)(C)OC(=O)N1[C@@H]2Cc3ccc(N)cc3[C@@]1(C)c1ccccc12 | 51.8 µM | – | 48.6 | 31.1 | > 100 | – | > 100 | > 100 | 53.6 | > 100 | > 100 | – | – | – | – | – | – | –
20 | NC(CC(O)(c1ccccc1)c1ccccc1)c1ccccc1S (stereo not given) | 29 µM | – | 68.3 | 31 | 24.8 | 28.2 µM | 36.4 | 29.7 | 32 | – | 24.2 | – | – | – | – | – | – | –
